Measured values from publication PMC6105827, “Antitrypanosomal 8-Hydroxy-Naphthyridines Are Chelators of Divalent Transition Metals” (Antimicrobial Agents and Chemotherapy, 2018).
Like-named read-outs stand apart in the source and are kept apart here.

Tests used:
[1] = test system: T. brucei bloodstream forms; experiment: microbe, parasite or virus in culture
Protocol: (§1) The clonal Leishmania donovani cell line LdBOB (derived from MHOM/SD/62/1S-CL2D) was grown as promastigotes at 28°C, as described previously ([53]). Bloodstream-form T. brucei MiTat 1.2 clone 221a and its derived subline, 2T1, were cultured at 37°C in the presence of 5% CO2 in HMI9-T medium, as described previously ([54]). The human carcinoma HepG2 cell line was grown at 37°C with 5% CO2 in minimal Eagle's medium (MEM) with GlutaMAX (1×; Sigma-Aldrich), nonessential amino acids (Sigma-Aldrich), and 10% FBS. Human HepG2 and THP-1 cells used in this study were ethically sourced from the ATCC.
(§2) L. donovani intramacrophage ([7]), HepG2 ([55]), T. brucei ([56]), and L. donovani promastigote ([57]) compound sensitivity assays were carried out as described previously. Human HepG2 and THP-1 cells used in these assays were provided by the ATCC. Data were processed by using GRAFIT (version 5.0.4; Erithacus Software) and fitted to a 2-parameter equation to obtain the effective concentration inhibiting growth by 50% (EC50). Data are presented as the means of results from at least two independent experiments.
(§3) In the first instance, the maximum tolerated concentrations of ZnCl2, CaCl2, CuCl2, MgCl2, MnCl2, and FeCl2 were determined for each cell type. […] Standard drug sensitivity assays were carried out (as described above) for each cell type with compounds 1, 2, and 3 in the presence and absence of the maximum tolerated concentration of metal salt.

HepG2 cells = experiment: HepG2 compound sensitivity assay (with/without ZnCl2); settings: for EC50: Homo sapiens
Protocol: as §1, §2, §3

[2] = test system: L. donovani promastigotes; experiment: L. donovani promastigote compound sensitivity assay (with/without metal salts); settings: for Tolerated concentration of exogenous metal salt: L. donovani promastigotes; for EC50: Leishmania donovani; for Shift: promastigotes
Protocol: as §1, §2, §3

L. donovani = settings: cited from earlier work
T. brucei = test system: T. brucei; set-up: method as in PMID 11849643; settings: cited from earlier work
L. major = test system: L. major; set-up: method as in PMID 7768775; settings: cited from earlier work
[3] = Cell-free fluorescence-based (FluoZin-3 salt) zinc binding assay; settings: compounds and DFMO 1 to 100 μM; TPEN 10 μM
Protocol: ZnCl2 (5 μM) was incubated with various concentrations of our three 8-HNT compounds followed by the addition of 125 nM FluoZin-3 salt dye. Reaction mixtures were preincubated for 20 min at RT and then aliquoted into a black 96-well plate. Fluorescence was then measured with a Pherastar spectrophotometer (excitation at 485 nm and emission at 520 nm). Calculations were carried out in Excel.

THP-1 cells = experiment: THP-1 cell sensitivity; format: cell-based; settings: Homo sapiens
Protocol: as §2

[4] = test system: L. donovani intramacrophage amastigotes; experiment: L. donovani intramacrophage compound sensitivity assay; format: cell-based; settings: Leishmania donovani; L. donovani intramacrophage amastigotes; ≥3 independent replicates; read-out: Intra-macrophage EC50
Protocol: as §2

[5] = Spectrophotometric UV-Vis titration and Job's plot of binding to divalent cations; format: physicochemical; settings: combined concentration 200 μM in methanol; absorbance 475/390/375 nm
Protocol: UV-visible (UV-Vis) titrations were carried out essentially as described previously ([65], [66]). Aliquots of metal divalent cations (concentrated stocks were made initially in water and then diluted in methanol) were added to a fixed concentration of 50 μM 8-HNT compound in methanol. After each aliquot addition, the incubation mixture was left to stabilize for 5 min at 25°C prior to scanning. Wavelength scanning was carried out at between 260 and 510 nm by using a UV-2401 PC UV-Vis spectrophotometer (Shimadzu). For Job's plot analyses ([66]), the combined concentration of 8-HNT and cation was fixed at 200 μM, and only the molar ratio of cation versus 8-HNT compound varied. Changes of the absorption at 475, 390, and 375 nm were indicative of cation complex formation with compounds 1 to 3, respectively. Specific absorbance at these wavelengths was determined and plotted against the molar ratio of compound to cation to determine complex stoichiometry ([66]).

[6] = test system: T. brucei bloodstream forms; experiment: Intracellular Zn2+ measurement with FluoZin-3 in T. brucei; format: cell-based, Trypanosoma brucei; settings: 8-HNT compounds 5 μM, TPEN 8 μM
Protocol: (§4) L. donovani promastigotes were grown to 2 × 10^7 cells ml^−1 and harvested by centrifugation (10 min at 1,600 × g). T. brucei bloodstream forms were grown to 2 × 10^6 cells ml^−1 and harvested by centrifugation (5 min at 800 × g). Parasites were washed with PBS and resuspended to a final concentration of 2.5 × 10^7 parasites ml^−1 in fresh PBS. Cells were incubated with FluoZin-3 (final concentration, 5 μM), pluronic acid (final concentration, 5 μM), and 14 mM glucose (T. brucei only). Parasites were incubated for 60 min at room temperature (RT), washed three times with PBS, and then resuspended in PBS (with 14 mM glucose for T. brucei only) before being aliquoted into a black, clear-bottomed 96-well plate (final concentration of 2.5 × 10^7 cells ml^−1). 8-HNT or control compounds were added directly to cells, and fluorescence was measured immediately by using a Pherastar fluorescence spectrophotometer (excitation at 485 nm and emission at 520 nm). Calculations were performed in Excel. […] Parasites were confirmed to be viable by microscopy after the completion of the experiment.

[7] = test system: L. donovani promastigotes; experiment: Intracellular Zn2+ measurement with FluoZin-3 in L. donovani; format: cell-based, Leishmania donovani; settings: 8-HNT compounds 5 μM, TPEN 8 μM
Protocol: as §4

[8] = test system: L. donovani promastigotes; experiment: Generation of an 8-HNT-resistant L. donovani cell line; format: cell-based, Leishmania donovani
Protocol: Resistant lines were generated as described previously ([31]), using compound 2 in L. donovani promastigotes. Starting at a sublethal concentration of 1 μM compound 2 in 3 independent cultures, concentrations were increased in a stepwise manner. However, after a total of 270 days in culture, promastigotes were unable to grow in ≥10 μM compound 2.

[9] = read-out: EC50 against bloodstream-form T. brucei, substance alone (Fig. S2), mean ± SEM
[10] = Trypanosoma brucei, read-out: Mean EC50 ± SD, Plus cation, plus CaCl2 (3 mM)
[11] = Trypanosoma brucei, read-out: Mean EC50 ± SD, Plus cation, plus CuCl2 (5 μM)
[12] = Trypanosoma brucei, read-out: Mean EC50 ± SD, Plus cation, plus MgCl2 (1 mM)
[13] = Trypanosoma brucei, read-out: Mean EC50 ± SD, Plus cation, plus MnCl2 (10 μM)
[14] = Trypanosoma brucei, read-out: Mean EC50 ± SD, WT, absence of cation, CaCl2 experiment
[15] = Trypanosoma brucei, read-out: Mean EC50 ± SD, WT, absence of cation, CuCl2 experiment
[16] = Trypanosoma brucei, read-out: Mean EC50 ± SD, WT, absence of cation, FeCl2 experiment
[17] = Trypanosoma brucei, read-out: Mean EC50 ± SD, WT, absence of cation, MgCl2 experiment
[18] = Trypanosoma brucei, read-out: Mean EC50 ± SD, WT, absence of cation, MnCl2 experiment
[19] = Trypanosoma brucei, read-out: Mean EC50 ± SD, WT, absence of cation, ZnCl2 experiment
[20] = Trypanosoma brucei, read-out: T. brucei bsf EC50, bloodstream form (Fig. 1)
[21] = read-out: EC50 values, WT, promastigotes, absence of cation, FeCl2 experiment
[22] = read-out: EC50 values, WT, promastigotes, absence of cation, ZnCl2 experiment
[23] = read-out: L. donovani pro EC50, promastigotes (Fig. 1)

Structure (SMILES): [Cl-].[Cl-].[Mg+2] [MgCl2]
- Maximum concentration of metal salt having a minimal impact on cell growth ([1]; T. brucei): 1000 µM

Structure (SMILES): [Cl-].[Cl-].[Zn+2] [ZnCl2]
- Tolerated concentration of exogenous metal salt (HepG2 cells; HepG2 cells): 100 µM
- Maximum concentration of metal salt having a minimal impact on cell growth [1]: 200 µM
- EC50 [1, 9]: 619000 ± 12600 nM
- Tolerated concentration of exogenous metal salt [2]: 100 µM

Structure (SMILES): [Cl][Fe][Cl] [FeCl2]
- Maximum concentration of metal salt having a minimal impact on cell growth [1]: 10 µM
- EC50 [1, 9]: 16800 ± 1400 nM
- Tolerated concentration of exogenous metal salt [2]: 100 µM

Structure (SMILES): CC(=O)N(O)CCCCCNC(=O)CCC(=O)N(O)CCCCCNC(=O)CCC(=O)N(O)CCCCCN [deferoxamine]
- Growth inhibition of L. donovani in vitro (L. donovani): inhibit the growth
- Growth inhibition of T. brucei in vitro (T. brucei): inhibit the growth
- Growth inhibition of L. major in vitro (L. major): inhibits the growth

Structure (SMILES): [Cl][Mn][Cl] [MnCl2]
- Maximum concentration of metal salt having a minimal impact on cell growth ([1]; T. brucei): 10 µM

Structure (SMILES): NCCCC(N)(C(=O)O)C(F)F (stereo not drawn) [DFMO, difluoromethylornithine, reference compound]
- Cell-free FluoZin-3 fluorescence (competition for Zn^2+ binding) [3]: did not affect the fluorescence levels
- Effect of exogenous divalent cations, including Fe^2+ and Zn^2+, on potency against T. brucei ([1]; control): failed to alter the potency
- EC50 [1, 9]: 39500 ± 900 nM

Structure (SMILES): CC(NC(=O)c1ncc2cccnc2c1O)c1ccc(F)cc1 (stereo not drawn) [Compound 3]
- EC50 (THP-1 cells): > 16 µM
- EC50 [4]: 200 nM
- EC50 (HepG2 cells; HepG2, read-out: HepG2 EC50): 16.1 µM
- Shift (fold) ([1]; CaCl2 (3 mM) vs WT): 0.9 fold
- Shift (fold) ([1]; CuCl2 (5 μM) vs WT): 1.1 fold
- Shift (fold) ([1]; FeCl2 (10 μM) vs WT): 3.7 fold
- Shift (fold) ([1]; MgCl2 (1 mM) vs WT): 0.9 fold
- Shift (fold) ([1]; MnCl2 (10 μM) vs WT): 1.3 fold
- EC50 [1, 10]: 700 ± 40 nM
- EC50 [1, 11]: 800 ± 60 nM
- EC50 [1, 12]: 700 ± 50 nM
- EC50 [1, 13]: 1010 ± 40 nM
- EC50 [1, 14]: 800 ± 100 nM
- EC50 [1, 15]: 800 ± 50 nM
- EC50 [1, 16]: 900 ± 30 nM
- EC50 [1, 17]: 800 ± 50 nM
- EC50 [1, 18]: 800 ± 50 nM
- EC50 [1, 19]: 500 ± 30 nM
- EC50 [1, 20]: 520 nM
- Shift (fold) ([1]; ZnCl2 (200 μM) vs WT): 12.0 fold
- EC50 [2, 21]: 100 ± 4 nM
- EC50 [2, 22]: 200 ± 10 nM
- EC50 [2, 23]: 220 nM
- Shift ([2]; FeCl2 (100 μM) vs WT): 1.9 fold
- Shift ([2]; ZnCl2 (100 μM) vs WT): 120.1 fold
- Job's plot intercept, molar fraction (compound to Zn^2+) [5]: 0.35

Structure (SMILES): [Cl][Cu][Cl] [CuCl2]
- Maximum concentration of metal salt having a minimal impact on cell growth ([1]; T. brucei): 5 µM

Structure (SMILES): c1ccc(CN(CCN(Cc2ccccn2)Cc2ccccn2)Cc2ccccn2)nc1 [TPEN, N,N,N′,N′-tetrakis(2-pyridylmethyl)ethane-1,2-diamine]
- Intracellular zinc level (FluoZin-3 fluorescence) [6]: decrease in fluorescence
- Inhibition of L. donovani in vitro (L. donovani): inhibit
- Cell-free FluoZin-3 fluorescence (competition for Zn^2+ binding) [3]: reduction in the level of fluorescence
- Intracellular zinc level (FluoZin-3 fluorescence) [7]: decrease in fluorescence
- EC50 ([1]; Trypanosoma brucei, read-out: EC50 against bloodstream-form T. brucei, substance alone (Fig. S2), mean ± SEM): 4100 ± 900 nM

Structure (SMILES): COc1ccccc1-c1nc(-c2nc(C)n[nH]2)c(O)c2ncccc12 [Compound 2]
- Concentration in which promastigotes were unable to grow ([8]; after 270 days in culture, start 1 μM): ≥ 10 µM
- Development of resistance in L. donovani promastigotes ([8]; stepwise increasing concentrations over a 9-month period): could not develop any resistance
- EC50 (THP-1 cells): > 50 µM
- EC50 [4]: 600 nM
- Shift of EC50 for HepG2 cells by ZnCl2 (HepG2 cells; 100 μM ZnCl2): 7 fold
- EC50 (HepG2 cells; HepG2, read-out: EC50 for HepG2 cells, absence of exogenous ZnCl2): 47.8 ± 3.6 µM
- EC50 (HepG2 cells; HepG2, read-out: HepG2 EC50): 15.9 µM
- Shift (fold) ([1]; CaCl2 (3 mM) vs WT): 1.0 fold
- Shift (fold) ([1]; CuCl2 (5 μM) vs WT): 0.9 fold
- Shift (fold) ([1]; FeCl2 (10 μM) vs WT): 2.4 fold
- Shift (fold) ([1]; MgCl2 (1 mM) vs WT): 1.1 fold
- Shift (fold) ([1]; MnCl2 (10 μM) vs WT): 0.8 fold
- EC50 [1, 10]: 1300 ± 60 nM
- EC50 [1, 11]: 1300 ± 60 nM
- EC50 [1, 12]: 900 ± 20 nM
- EC50 [1, 13]: 1200 ± 50 nM
- EC50 [1, 14]: 1200 ± 40 nM
- EC50 [1, 15]: 1400 ± 70 nM
- EC50 [1, 16]: 700 ± 60 nM
- EC50 [1, 17]: 800 ± 50 nM
- EC50 [1, 18]: 1400 ± 90 nM
- EC50 [1, 19]: 800 ± 50 nM
- EC50 [1, 20]: 790 nM
- Shift (fold) ([1]; ZnCl2 (200 μM) vs WT): 19.7 fold
- EC50 [2, 21]: 100 ± 10 nM
- EC50 [2, 22]: 200 ± 40 nM
- EC50 [2, 23]: 180 nM
- Shift ([2]; FeCl2 (100 μM) vs WT): 6.8 fold
- Shift ([2]; ZnCl2 (100 μM) vs WT): 265.7 fold
- Job's plot intercept, molar fraction (compound to Zn^2+) [5]: 0.31

Structure (SMILES): [Ca+2].[Cl-].[Cl-] [CaCl2]
- Maximum concentration of metal salt having a minimal impact on cell growth ([1]; T. brucei): 3000 µM
